Results on two molecules are retold here after patent publication US20060099170A1, “Compositions for inducing increased levels of beta-chemokines and methods of use therefor” (priority 2002, published 2006).

For series [1], the system named is activated PBMCs. Put plainly: β-chemokine levels (ELISA) in supernatants of activated PBMCs cultured with cell cycle arresting compounds. In kind it is cell-based, human.
The subject of series [2] is activated PBMCs. Put plainly: Cell number / proliferation of activated PBMCs (trypan blue). To be noted: PHA-activated PBMCs in presence of HU, trypan blue. In kind it is cell-based, human. The procedure: (§1) Cell proliferation was measured by the trypan blue staining viability test, [^3H]thymidine incorporation in DNA, and the 3-(4,5-dimethylthiazol-2-yl)-2,5-diphenyl tetrazolium bromide (MTT) assay (Roche).
To this end, β-chemokine levels (production or availability) by activated PBMCs cultured in the presence of HU was investigated. HU is a G1 cytostatic drug that, by depleting intracellular nucleotide pools, arrests cell cycle progression in late G1 (Lori, et al., 1994). […] In the representative experiment depicted in FIG. 2, day 8 chemokine levels in cultures containing 100 μM HU were increased 3.4-fold for RANTES, 5.4-fold for MIP-1α, and 4-fold for MIP-1β compared with the untreated control. Because HU inhibits lymphocyte proliferation, chemokine values also were expressed as chemokine amount per viable cell. As expected, cell numbers were lower in the presence of the drug (FIG. 2C).
The agents evaluated were SB, APH, RC, and OL. SB and APH arrest the cell cycle in early and late G1, respectively (Korin, et al., 1998; Koostra, et al., 2000). RC and OL are purine-derivative drugs that arrest cell cycle progression in late G1 through inhibition of cyclin-dependent kinases (CDKs) (Gray, et al., 1999). […] The number of viable cells and chemokine levels are depicted. […]

For series [3], the system named is CD8 lymphocytes. Put plainly: β-chemokine levels (ELISA) in cultures of purified activated CD8 lymphocytes. In kind it is cell-based, human. To be noted: 48 h.
For series [4], the system named is CD8 lymphocytes. In kind it is cell-based, human. To be noted: HU 100 and 200 μM. The protocol:
as §1
The impact of cell cycle arrest in β-chemokine levels was evaluated by measuring chemokine levels in supernatants of cell cultures containing compounds known to cause cell cycle arrest. Levels of the β-chemokines RANTES, MIP-1α, and MIP-1β were measured by using commercial ELISA kits (R &D Systems). Cell cycle arrest in G1 was induced by culturing of the cells in the presence of aphidicolin (APH), sodium butyrate (SB), hydroxyurea (HU), roscovitine (RC), or olomoucine (OL). Arrest in late S phase was induced by culture of cells in the presence of resveratrol. G2 cycle arrest was induced by the compounds nocodazole and Colcemid. All compounds were purchased from Sigma except RC and OL, which were from Calbiochem. Arrest of cell cycle progression in the presence of G1 cytostatic agents was measured by propidium iodide staining followed by fluorescence-activated cell sorter (FACS) analysis (Noguchi, et al., 1991). This method may be used to test any compound for ability to arrest the G1 phase in a cell cycle.
In the experiments described thus far, total PBMCs had been used. […] Negatively selected CD8^+ lymphocytes were activated by anti-CD3 plus IL-2 treatment for 3 days. Activated cells were cultured in the presence of IL-2 and HU (100 and 200 μM) for 24 or 48 h, time points at which cell proliferation and supernatant chemokine levels were assayed. Cell proliferation was determined by trypan blue staining, [^3H]thymidine incorporation in DNA, and percentage of cells in S phase as assessed by propidium iodide staining (FIG. 4). […] Similarly, the percentage of cells in S phase increased in the absence of HU, whereas it decreased in its presence. […]
To investigate whether increased levels of supernatant chemokines upon cell cycle arrest are cell cycle phase-specific, the effect of G2 arrest in chemokine production next was evaluated. […]

In another series the test system is HIV-1 BaL. Put plainly: HIV-1-suppressive activity of supernatants from HU-treated PBMCs, infected PBMCs, p24. The settings on record: 100 μM HU in fresh medium, day 7 after infection. In kind it is cell-based.
In a further series the test system is HIV. Put plainly: Cyclic therapy trial with HU during off-ARV periods: viral load. To be noted: for Viral load: 7 days on ARV's alternated by 14 days off ARV's but on HU. In kind it is in vivo. From the text: (§2) The protocol used in the present invention expands on the NIH's concept of Cyclic Therapy. Cyclic therapy is a strategy in which patients can maintain viral suppression despite alternating between 7 days of taking ARV medications and 7 days of taking no medications. Compared to the NIH trail of short cycle of 7 days intermittently off therapy, in our trial, the G1 cycle agent HU is being used to maintain viral suppression during an extended off medication cycle of 14-28 days. The off period is followed by 7 days of combination antiretroviral therapy. This has allowed study participants to be on ⅔ fewer medications but still maintain viral control and immune reconstitution.
(§3) Four patients are enrolled in the trial. Patients in this study have benefited from decreased drug related toxicities, relief from difficult financial sacrifices to stay on ARV's, and improved adherence to medications.

Another series relates to CD4. Put plainly: Cyclic therapy trial with HU during off-ARV periods: absolute CD4 count. In kind it is in vivo, human. The settings on record: 7 days on ARV's alternated by 14 days off ARV's but on HU.
From the text: as §2, §3

Series [5] has as its system activated PBMCs. Put plainly: β-chemokine levels in activated PBMCs cultured with Vitamin E. In kind it is cell-based, human. The settings on record: day 6 after addition of Vitamin E, IL-2, FIG. 12. The procedure: B-chemokines levels were measured in activated PBMCs cuftured in the presence of Vitamin E, an antioxidant reported to induce G1 cycle arrest. PBMCs from a healthy donor were activated under the presence of the indicated stimuli for 72 h. Activated cells were cultured in the presence of IL-2 and Vitamin E. Supernatants were evaluated for β-chemokine content on day 6 after addition of Vitamin E. Cell viability was measured by MTT assay.

The test system of the next series is HIV-1. Put plainly: HIV-1 production upon activation of patients' resting CD4 T cells (p24 ELISA). In kind it is cell-based. The settings on record: 5 μg/ml VE. The protocol: HIV-1 gene expression on latently infected resting T cells is dependent on host transcriptional factors, such as NF-κB, that are induced on activated cells. In the present study we have evaluated the in vitro effect of adding Vitamin E (VE) to cultures of patients' resting CD4 T cells under conditions of cellular activation that promote virus expression.
(§4) Blood (50 ml) was drawn from 10 patients on antiretroviral therapy, whose viral load were <400 copies/ml and whose CD4 counts were >300/μl. Resting CD4 T cells were purified by negative selection using antibody-labeled magnetic beads (Dynal, Lake Success, N.Y.). Purified cells were activated by co-culture with γ-irradiated PBMCs from normal donors in the presence of 1 μg/ml anti-CD3 antibody (Coulter, Miami, Fla.) and 100 units/ml rhIL-2 (Roche, Indianapolis, Ind.). Cultures were set up in the absence or continuous presence of 5 μg/ml of VE (Vitamin E succinate, Sigma, St. Louis, Mo.), with medium replenishment every 3 or 4 days. Cultures were maintained for 14 days. Virus production was monitored by measuring p24 antigen (NEN, Boston, Mass.) in the culture supernatants on days 7 and 14. Cell viability was measured by trypan blue staining.

For another series, the system named is resting CD4 T cells. Put plainly: Cell viability / proliferation of patients' CD4 T cell cultures (trypan blue). In kind it is cell-based, human. The settings on record: 5 μg/ml VE, days 7 or 14; data not shown. The procedure:
as §4

Setting [6] is: 100 μM HU, day 8, levels as ng/ml.

Experimental for HIV-1 BaL: The antiviral activity of the supernatants collected from cultures of PBMCs that had been exposed to 100 μM HU for 7 days [supernatants referred to as conditioned medium (CM)] was evaluated in PBMCs infected with HIV-1 BaL and HIV-1 IIIb. Briefly, PHA-activated PBMCs were infected with each virus at 100 tissue culture 50% infective dose units (TCID50)/10^6 PBMCs or 10 TCID50/10^6 PBMCs for 2 h at 37° C. Infected cells were cultured in IL-2 medium alone, IL-2 medium with 100 μM HU, IL-2 medium containing 50% supernatant from HU-treated PBMCs (CM/HU), or IL-2 medium containing 50% supernatant from control-treated PBMCs (CM/control). On day 3 after infection, culture medium was replaced with fresh medium of the same kind as on day 1. Viral growth (measured by p24 levels in the supernatant) and cell viability (assayed by MTT) were determined on day 7 after infection.
These culture supernatants were referred to as CM/HU. Culture supernatants from activated PBMCs cultured under the same conditions in the absence of HU (CM/control) also were harvested.
The antiviral activity of the CM was evaluated in the infection of PBMCs with HIV-1 BaL (a prototype R5-using virus) and HIV-1 IIIb (a prototype X4-using virus). […] Virus replication and cell viability were measured on day 7 after infection.

Turning to `NC(=O)NO` [HU, hydroxyurea], in the series with activated PBMCs [1], the chemokine levels entry is reported as “increased chemokine levels”. Besides, in the series with activated PBMCs [1] (setting [6]), the “MIP-1α level increase compared with untreated control” value worked out at 5.4 fold. Moreover, the “MIP-1β level increase compared with untreated control” value in the series with activated PBMCs [1] (setting [6]) was determined as 4 fold. The “RANTES level increase compared with untreated control” value in the series on activated PBMCs [1] (setting [6]) turned out to be 3.4 fold. Moreover, the “MIP-1α level increase, ng per 10^6 cells” value in the series on activated PBMCs [1] (100 μM HU, per viable cell) is given as 25.4 fold. In the series on activated PBMCs [1] (100 μM HU, per viable cell), the “MIP-1β level increase, ng per 10^6 cells” value came out at 18.4 fold. Moreover, the “RANTES level increase, ng per 10^6 cells” value with activated PBMCs [1] (100 μM HU, per viable cell) came to 16.2 fold. Besides, the “concentrations (ng/ml) of RANTES, MIP-1α, and MIP-1β in the culture supernatants” value with activated PBMCs [1] (PHA-activated PBMCs, HU for 14 days, dose-dependent) was “increased concentrations”. For the same molecule, the cell numbers result with activated PBMCs [2] is reported as “lower”. In the series with CD8 lymphocytes [3] (100 μM HU), this molecule displayed an MIP-1α level increase of 3.7 fold. In the series on CD8 lymphocytes [3] (100 μM HU), this molecule came in with an MIP-1β level increase of 4.7 fold. Also, the RANTES level increase with CD8 lymphocytes [3] (100 μM HU) was found to be 1.9 fold. In the series on CD8 lymphocytes [3] (200 μM HU, compared with 100 μM), the chemokine production levels result is reported as “Slightly lower increases”. Further, in the series on CD8 lymphocytes [4] (propidium iodide), the “percentage of cells in S phase” value is reported as “decreased”. Besides, the “cell number and thymidine incorporation between 24 and 48 h” value in the series on CD8 lymphocytes [4] (doubled in absence of HU) is “remained constant or decreased”. Further, the “inhibition of HIV-1 BaL replication” value in the series on HIV-1 BaL was less than 10%. For the same molecule, the inhibition at 100 µM in the series with HIV-1 BaL (Human immunodeficiency virus 1, BAL, PBMC, 168 h, read-out: inhibition of HIV-1 BaL replication) turned out to be 8%. Also, the Viral load with HIV (Patient 1, 6 wks) is given as 72 Copies/ml; in the series on HIV (Patient 1, 9 wks) it was 158 Copies/ml; in the series with HIV (Patient 1, 12 wks) it was 114 Copies/ml; with HIV (Patient 1, 18 wks), 973 Copies/ml; in the series with HIV (Patient 1, column head 3 wks off continuous therapy), 0 Copies/ml; in the series with HIV (Patient 1, column head 15 wks) it was 322 Copies/ml. In addition, the Viral load in the series on HIV (Patient 1, column head 21 wks) was 0 Copies/ml; in the series with HIV (Patient 2, 3 wks) it was 0 c/ml; in the series with HIV (Patient 2, 6 wks), 0 c/ml; with HIV (Patient 2, 9 wks), 0 c/ml; in the series on HIV (Patient 2, 12 wks) it was 0 c/ml; in the series with HIV (Patient 2, 18 wks), 0 c/ml. Moreover, the Viral load came out at 0 c/ml with HIV (Patient 2, column head 15 wks); 0 c/ml in the series with HIV (Patient 3, 3 wks); 0 c/ml in the series on HIV (Patient 3, 6 wks); 0 c/ml in the series with HIV (Patient 3, 9 wks); 0 c/ml in the series on HIV (Patient 3, 12 wks). For the same molecule, in the series on HIV (all three patients, at least 3 cycles of treatment), the “viral suppression despite discontinuation of primary anti-retroviral drugs” value is recorded as “persistent viral suppression”. For the same molecule, the “Absolute CD4 count” value in the series on CD4 (Patient 1, 3 wks) was 377; in the series on CD4 (Patient 1, column head 21 wks), 518; with CD4 (Patient 2, 3 wks), 1256; with CD4 (Patient 2, 18 wks), 973; in the series on CD4 (Patient 3, 3 wks) it was 934; in the series with CD4 (Patient 3, 12 wks), 995.

On to `Cc1c(C)c2c(c(C)c1O)CC[C@@](C)(CCC[C@H](C)CCC[C@H](C)CCCC(C)C)O2` [Vitamin E, alpha-tocopherol], for which the “levels of β-chemokines” value with activated PBMCs [5] is on record as “increased levels of β-chemokines”. In the series with HIV-1 (day 14, 9 patients, log of p24 pg/ml, absence of VE 3.58, p=0.016), the “virus production, mean Log p24” value was determined as 2.06. For the same molecule, in the series with HIV-1 (day 14, untreated 9/10), the “cultures with positive virus isolation” value is 7/10. In the series with resting CD4 T cells, the “cell viability and cell proliferation” value is listed as “Neither cell viability nor cell proliferation was affected”.
